These results are taken from US20250092052A1, “HETEROARYL DERIVATIVE COMPOUNDS, AND USES THEREOF” (VORONOI INC., priority 2023, published 2025).

Structures are written as SMILES.

One assay addresses human PKMYT1 enzyme (Homo sapiens (Human), UniProt Q99640). The assay can be described thus: Inhibitory activity against PKMYT1 kinase (ADP-Glo kinase assay). It is filed as biochemical. Conditions: purified human PKMYT1, ATP, CDK1 substrate, 25° C., 1 hour. As for the experimental part: To evaluate the inhibitory activity of the compounds synthesized according to the above Examples against PKMYT1 kinase, the Example compounds were reacted with purified human PKMYT1 enzyme and assessed using the following method.
The reaction buffer was used as a composition of 200 mM Tris-HCl pH 7.4, 100 mM MgCl2, 0.5 mg/mL BSA, 0.25 mM DTT, and the reactions of all the tests were carried out on the reaction buffer.
The compound was diluted in 12 steps using a serial dilution method from a 10 mM DMSO stock, and the enzyme activity was measured at a final compound concentration of 10˜0.00005645 μM. During the test, the enzyme activity was confirmed using in vitro ADP-Glo™kinase assay (Promega) after reacting with the proper concentration of PKMYT1 enzyme, purified ATP, and enzyme substrate (CDK1) at 25° C. for 1 hour. At a ratio of 2:2:1, an enzyme-active reaction solution, an ADP-Glo reaction solution, and an enzyme-active detection solution were reacted to measure the inhibition of the enzyme's activity with luminescence. Based on the […] of the enzyme activity of the solvent control that was not treated with the compound, the degree of enzyme activity inhibition was calculated according to the treatment concentration of each compound, and the concentration of each compound that inhibits 50% of enzyme activity was determined as IC50 (nM) value and the value was obtained by using GraphPad Prism 8.3.0 (GraphPad software Inc., San Diego) software.
For orientation: ADP-Glo turns the ADP formed in a reaction into a luminescent signal.

The target in a further assay is Myt1-KD (Homo sapiens (Human), UniProt Q99640). The assay can be described thus: Thermal Shift Assay, compound binding to Myt1-KD. Conditions: 2 μM protein, 100 μM compound, Tm of compound minus Tm of DMSO. As for the experimental part:
The degree of compound binding to Myt1-KD was tested using a Thermal Shift Assay. Each protein was diluted to a concentration of 2 μM in 50 mM Tris (pH 7.5) with 100 μM of the compound. SYPRO™ Orange dye was added to the solution, and the plate was transferred to a QuantStudio3 Real-Time PCR System (Applied Biosystems by Thermo Fisher Scientific). […] The degree of protein melting in the presence of the compound compared to DMSO was calculated according to the following Equation 1. ΔTm=Tm (Temperature of Example compound)−Tm (Temperature of DMSO) [Equation 1]

The IC50 is the midpoint of a concentration-inhibition curve. Low readings indicate greater potency in that assay, high ones weaker potency in that assay. For orientation: ΔTm means the shift of the melting midpoint relative to a reference.

Chain of Myt1-KD (Q99640 110-359): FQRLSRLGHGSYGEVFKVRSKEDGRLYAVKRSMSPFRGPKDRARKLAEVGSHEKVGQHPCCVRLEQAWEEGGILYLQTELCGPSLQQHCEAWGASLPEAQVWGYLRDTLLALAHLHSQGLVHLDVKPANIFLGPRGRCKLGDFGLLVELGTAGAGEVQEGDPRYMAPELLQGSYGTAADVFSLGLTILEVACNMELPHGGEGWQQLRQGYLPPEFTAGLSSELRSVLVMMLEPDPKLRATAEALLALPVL
Chain of human PKMYT1 enzyme (Q99640 whole entry): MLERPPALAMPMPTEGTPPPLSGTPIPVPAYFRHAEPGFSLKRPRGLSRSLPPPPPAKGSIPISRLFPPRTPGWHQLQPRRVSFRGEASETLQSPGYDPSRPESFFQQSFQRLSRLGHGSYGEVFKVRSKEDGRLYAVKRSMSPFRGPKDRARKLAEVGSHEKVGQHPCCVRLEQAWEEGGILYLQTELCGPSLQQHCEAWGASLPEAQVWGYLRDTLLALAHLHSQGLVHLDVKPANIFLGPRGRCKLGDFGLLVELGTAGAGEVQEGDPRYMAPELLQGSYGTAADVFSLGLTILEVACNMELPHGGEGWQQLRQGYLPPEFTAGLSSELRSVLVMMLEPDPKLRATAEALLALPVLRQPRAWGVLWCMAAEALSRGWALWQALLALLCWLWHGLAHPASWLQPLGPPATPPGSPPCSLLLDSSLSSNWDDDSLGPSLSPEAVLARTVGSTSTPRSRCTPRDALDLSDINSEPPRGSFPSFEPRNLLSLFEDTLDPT

At human PKMYT1 enzyme, `Cc1ccc(O)c(C)c1-n1c(N)c(C(=O)c2cc3cc(N4CCN(C)CC4)ccc3[nH]2)c2nccnc21` (atropisomer, axis not shown) [Example 22, (R)-(6-amino-5-(3-hydroxy-2,6-dimethylphenyl)-5H-pyrrolo[2,3-b]pyrazin-7-yl)(5-(4-methylpiperazin-1-yl)-1H-indol-2-yl)methanone] had an IC50 of no more than 200 nM. Further, the “ΔTm (° C.)” value on Myt1-KD was “A (ΔTm (° C.) ≥ 5° C.)”.

Compound `Cc1ccc(O)c(C)c1-n1c(N)c(C(=O)c2cc3ccncc3[nH]2)c2nccnc21` (atropisomer, axis not shown) [Example 25, (R)-(6-amino-5-(3-hydroxy-2,6-dimethylphenyl)-5H-pyrrolo[2,3-b]pyrazin-7-yl)(1H-pyrrolo[2,3-c]pyridin-2-yl)methanone] came in with an IC50 against human PKMYT1 enzyme of no more than 200 nM. Also, on Myt1-KD, the “ΔTm (° C.)” value was “A (ΔTm (° C.) ≥ 5° C.)”.

In turn, `Cc1ccc(O)c(C)c1-n1c(N)c(C(=O)c2cc3ccccc3[nH]2)c2nccnc21` (single isomer, unassigned) [Example 1] had an IC50 on human PKMYT1 enzyme of no more than 200 nM. On Myt1-KD, the ΔTm at 100 µM is no less than 5 °C.

For the compound `Cc1ccc(O)c(C)c1-n1c(N)c(C(=O)c2nc3ccccc3[nH]2)c2cccnc21` [Example 3, (S)-(2-amino-1-(3-hydroxy-2,6-dimethylphenyl)-1H-pyrrolo[2,3-b]pyridin-3-yl)(1H-benzo[d]imidazol-2-yl)methanone], on human PKMYT1 enzyme, the IC50 is no more than 200 nM. For the same compound, the “ΔTm (° C.)” value at Myt1-KD is recorded as “A (ΔTm (° C.) ≥ 5° C.)”.

`Cc1ccc(O)c(C)c1-n1c(N)c(C(=O)c2cc3sccc3[nH]2)c2nc(C)c(C)nc21` [Example 13, (S)-(6-amino-5-(3-hydroxy-2,6-dimethylphenyl)-2,3-dimethyl-5H-pyrrolo[2,3-b]pyrazin-7-yl)(4H-thieno[3,2-b]pyrrol-5-yl)methanone]: the IC50 on human PKMYT1 enzyme is no more than 200 nM. The “ΔTm (° C.)” value on Myt1-KD is reported as “A (ΔTm (° C.) ≥ 5° C.)”.

In the case of `Cc1ccc(O)c(C)c1-n1c(N)c(C(=O)c2ccc[nH]2)c2nccnc21` [Example 23, (6-amino-5-(3-hydroxy-2,6-dimethylphenyl)-5H-pyrrolo[2,3-b]pyrazin-7-yl)(1H-pyrrol-2-yl)methanone], the IC50 at human PKMYT1 enzyme is no more than 200 nM. The ΔTm at 100 µM on Myt1-KD was no more than 5 °C.
